What follows are compounds tested against human PD-L1 / Human PD-1 (Homo sapiens (Human), UniProt Q9NZQ7) (assay: Enzyme-Linked Immunosorbent Assay (ELISA), PD-1/PD-L1 binding). Conditions: Table 2; plate-coated human PD-L1, biotinylated human PD-1; read-out: ELISA IC50.
Outline: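 Human PD-L1 coated at 1 μg/mL overnight at 4° C; samples diluted 1:5 and incubated with human PD-1 and biotin (0.3 μg/mL) for 1 h at 37° C. Bound PD-1 detected with streptavidin-HRP and TMB (20 min, 37° C), acid-stopped, absorbance at 450 nm.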

Sequence of human PD-L1 / Human PD-1 (Q9NZQ7 19-239): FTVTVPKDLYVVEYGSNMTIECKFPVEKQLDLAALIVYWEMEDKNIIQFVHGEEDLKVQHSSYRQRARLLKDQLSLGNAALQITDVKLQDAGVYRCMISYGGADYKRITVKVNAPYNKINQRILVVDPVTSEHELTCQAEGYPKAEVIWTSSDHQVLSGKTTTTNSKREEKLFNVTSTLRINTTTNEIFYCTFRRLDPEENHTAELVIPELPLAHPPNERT

| Structure (SMILES) | IC50 [nM] |
| --- | --- |
| N#Cc1cncc(COc2cc(O[C@H]3CCc4c(-c5ccccc5)cccc43)c(Cl)cc2CN[C@@H](CO)C(=O)O)c1 [Example 2.002] | < 100 |
| CC(C)(O)CNCc1cc(Cl)c(O[C@H]2CCc3c(-c4ccccc4)cccc32)cc1OCc1cncc(C#N)c1 [Example 1.012] | 500 to 20000 |
| COc1ccc(-c2cccc3c2CC[C@@H]3Oc2cc(OCc3cncc(C#N)c3)c(CN[C@@H](CO)C(=O)O)cc2Cl)cc1OC [Example 2.021] | 500 to 20000 |
| N#Cc1cncc(COc2cc(O[C@H]3CCc4c(-c5ccccc5F)cccc43)c(Cl)cc2CN[C@@H]2[C@@H]3CC[C@@H](C3)[C@@H]2C(=O)O)c1 [Example 2.174] | 500 to 20000 |
| CC(CO)(NCc1cc(Cl)c(O[C@H]2CCc3c(-c4ccccc4F)cccc32)cc1OCc1cncc(C#N)c1)C(=O)O (some centres unmarked) [Example 2.152] | < 100 |
| OC1CCN(Cc2cc(Cl)c(O[C@H]3CCc4c(-c5ccccc5F)cccc43)cc2OCc2ccc(C(F)(F)F)nc2)CC1 [Example 2.096] | 500 to 20000 |
| N#Cc1cncc(COc2cc(O[C@H]3CCc4c(-c5ccccc5)cccc43)c(Cl)cc2CNCCn2nn[nH]c2=O)c1 [Example 1.010] | 100 to 500 |
| CN(C)c1cccc(-c2cccc3c2CC[C@@H]3Oc2cc(OCc3cncc(C#N)c3)c(CN[C@@H](CO)C(=O)O)cc2Cl)c1 [Example 2.027] | 500 to 20000 |
| N#Cc1cncc(COc2cc(O[C@H]3CCc4c(-c5ccccc5F)cccc43)c(Cl)cc2CN2CCC(O)C(F)(F)C2)c1 (some centres unmarked) [Example 2.097] | 500 to 20000 |
| COc1cccc(-c2cccc3c2CC[C@@H]3Oc2cc(OCc3cncc(C#N)c3)c(CN3CC(O)C3)cc2Cl)c1F [Example 2.051] | < 100 |
| N#Cc1cncc(COc2cc(OC3CCc4c(-c5ccccc5)cccc43)c(Cl)cc2CN[C@@H](CO)C(=O)O)c1 (some centres unmarked) [Example 1.001] | < 100 |
| N#Cc1cncc(COc2cc(O[C@H]3CCc4c(-c5ccc6c(c5F)OCCO6)cccc43)c(Cl)cc2CN2CC(O)C2)c1 [Example 2.070] | < 100 |
| COc1cccc(-c2cccc3c2CC[C@@H]3Oc2cc(OCc3cncc(C#N)c3)c(CN3CCC(C(N)=O)CC3)cc2Cl)c1Cl [Example 2.083] | 100 to 500 |
| N#Cc1cncc(COc2cc(O[C@H]3CCc4c(-c5ccc6c(c5)OCCO6)cccc43)c(Cl)cc2CN2CC(O)C2)c1 [Example 2.050] | < 100 |
| N#Cc1cncc(COc2cc(O[C@H]3CCc4c(-c5ccc6c(c5Cl)OCCO6)cccc43)c(Cl)cc2CN[C@@H](CO)C(=O)O)c1 [Example 2.161] | < 100 |
| CC(C)Oc1cc(O[C@H]2CCc3c(-c4ccccc4)cccc32)c(Cl)cc1CN[C@@H](CO)C(=O)O [Example 2.011] | 500 to 20000 |

| Structure (SMILES) | IC50 [nM] |
| --- | --- |
| N#Cc1cncc(COc2cc(O[C@H]3CCc4c(-c5ccccc5F)cccc43)c(Cl)cc2CNC23CC(C2)C3)c1 [Example 2.017] | 500 to 20000 |
| CCOc1cc(O[C@H]2CCc3c(-c4ccccc4F)cccc32)c(Cl)cc1CN[C@H](C(=O)O)[C@@H](C)O [Example 2.157] | 100 to 500 |
| N#Cc1cncc(COc2cc(O[C@H]3CCc4c(-c5ccccc5F)cccc43)c(Cl)cc2CNC(=O)CCCC(=O)O)c1 [Example 2.173] | 500 to 20000 |
| C[C@@H](O)[C@H](NCc1cc(Cl)c(O[C@@H]2c3cccc(-c4ccccc4F)c3C[C@H]2F)cc1OCc1cncc(C#N)c1)C(=O)O [Example 2.146] | < 100 |
| N#Cc1cncc(COc2cc(O[C@H]3CCc4c(-c5ccccc5F)cccc43)c(Cl)cc2CN[C@@H](CO)C(N)=O)c1 [Example 2.167] | 100 to 500 |
| N#Cc1cncc(COc2cc(O[C@H]3CCc4c(-c5ccccc5F)cccc43)c(Cl)cc2CNC(C(N)=O)C(N)=O)c1 [Example 2.170] | 500 to 20000 |
| OC1CCN(Cc2cc(Cl)c(O[C@H]3CCc4c(-c5ccccc5F)cccc43)cc2OCc2ccc(C(F)(F)F)nc2)CC1 [Example 2.095] | 500 to 20000 |
| COc1ccc(-c2cccc3c2CC[C@@H]3Oc2cc(OCc3cncc(C#N)c3)c(CN[C@@H](CO)C(=O)O)cc2Cl)cc1 [Example 2.014] | 100 to 500 |
| N#Cc1cncc(COc2cc(O[C@H]3CCc4c(-c5ccccc5)cccc43)c(Cl)cc2CNCc2ccn[nH]2)c1 [Example 1.015] | 500 to 20000 |
| CC(C)C[C@H](NCc1cc(Cl)c(O[C@H]2CCc3c(-c4ccccc4F)cccc32)cc1OCc1cncc(C#N)c1)C(=O)O [Example 2.092] | 100 to 500 |
| CC(C)(CNCc1cc(Cl)c(O[C@H]2CCc3c(-c4ccccc4)cccc32)cc1OCc1cncc(C#N)c1)C(=O)O [Example 1.013] | 500 to 20000 |
| COc1ccc(F)c(-c2cccc3c2CC[C@@H]3Oc2cc(OCc3cncc(C#N)c3)c(CN3CC(O)C3)cc2Cl)c1 [Example 2.077] | 100 to 500 |
| N#Cc1cncc(COc2cc(OC3CCc4c(-c5ccccc5)cccc43)c(Cl)cc2CN2CCCC[C@H]2C(=O)O)c1 (some centres unmarked) [Example 1.005] | < 100 |
| N#Cc1cncc(COc2cc(O[C@H]3CCc4c(-c5ccccc5F)cccc43)c(Cl)cc2CNCC(=O)NO)c1 [Example 2.151] | 500 to 20000 |
| CCc1ccccc1-c1cccc2c1CC[C@@H]2Oc1cc(OCc2cncc(C#N)c2)c(CN[C@@H](CO)C(=O)O)cc1Cl [Example 2.035] | 100 to 500 |

Same assay, conditions: Table 3; plate-coated human PD-L1, biotinylated human PD-1; read-out: ELISA IC50

| Structure (SMILES) | IC50 [nM] |
| --- | --- |
| Cn1ccnc1CNCc1cc(Cl)c(O[C@H]2CCc3c(-c4ccccc4F)cccc32)cc1OCc1cncc(C#N)c1 [Example 3.075] | 100 to 500 |
| N#Cc1cncc(COc2cc(O[C@H]3CCc4c(-c5ccccc5F)cccc43)c(Cl)cc2CN[C@@H](CO)C(=O)NCC(=O)O)c1 [Example 3.044] | < 100 |
| N#Cc1cncc(COc2cc(O[C@H]3CCc4c(-c5ccccc5F)cccc43)c(Cl)cc2CN[C@@H](Cc2c[nH]cn2)C(=O)O)c1 [Example 3.103] | 100 to 500 |
| N#Cc1cncc(COc2cc(O[C@H]3CCc4c(-c5ccccc5F)cccc43)c(Cl)cc2CNCc2ccc(C(N)=O)cc2)c1 [Example 3.092] | 100 to 500 |
| N#Cc1cc(C#N)cc(COc2cc(O[C@H]3CCc4c(-c5ccccc5F)cccc43)c(Cl)cc2CN[C@@H](CO)C(=O)O)c1 [Example 3.004] | < 100 |
| COC(=O)[C@](C)(CO)NCc1cc(Cl)c(O[C@H]2CCc3c(-c4ccc5c(c4F)OCCO5)cccc32)cc1OCc1cncc(C#N)c1 [Example 3.035] | 100 to 500 |
| N#Cc1cc(Br)cc(COc2cc(O[C@H]3CCc4c(-c5ccccc5F)cccc43)c(Cl)cc2CN[C@@H](CO)C(=O)O)c1 [Example 3.063] | < 100 |
| N#Cc1cncc(COc2cc(O[C@H]3CCc4c(-c5ccccc5F)cccc43)c(Cl)cc2CN2CC[C@H](C(=O)O)C2)c1 [Example 3.131] | < 100 |
| C[C@@](CO)(NCc1cc(Cl)c(O[C@@H]2CCc3c(-c4ccccc4F)cccc32)cc1OCc1cncc(C#N)c1)C(=O)O [Example 3.119] | < 100 |
| N#Cc1cncc(COc2cc(O[C@H]3CCc4c(-c5ccc6c(c5F)OCCO6)cccc43)c(Cl)cc2CNC(CO)(CO)CO)c1 [Example 3.057] | < 100 |
| N#Cc1cncc(COc2cc(O[C@H]3CCc4c(-c5ccc6c(c5F)OCO6)cccc43)c(Cl)cc2CN[C@@H](CO)C(=O)O)c1 [Example 3.110] | < 100 |
| N#Cc1cncc(COc2cc(O[C@H]3CCc4c(-c5cccc6ccccc56)cccc43)c(Cl)cc2CN[C@@H](CO)C(=O)O)c1 [Example 3.126] | 100 to 500 |
| N#Cc1cncc(COc2cc(O[C@H]3CCc4c(-c5ccccc5F)cccc43)c(Cl)cc2CN[C@H]2CCc3ccc(O)cc3C2)c1 [Example 3.093] | 100 to 500 |
| Cn1nnc(-c2cncc(COc3cc(O[C@H]4CCc5c(-c6ccccc6F)cccc54)c(Cl)cc3CN[C@@H](CO)C(=O)O)c2)n1 [Example 3.101] | 100 to 500 |
| N#Cc1cncc(COc2cc(O[C@H]3CCc4c(Br)cccc43)c(Cl)cc2CN[C@@H](CO)C(=O)O)c1 [Example 3.028] | 500 to 20000 |
| O=C(O)c1cncc(COc2cc(O[C@H]3CCc4c(-c5ccc6c(c5F)OCCO6)cccc43)c(Cl)cc2CN[C@@H](CO)C(=O)O)c1 [Example 3.030] | 100 to 500 |
| N#Cc1cc(C#N)cc(COc2cc(O[C@H]3CCc4c(-c5ccc6c(c5)OCCO6)cccc43)c(Cl)cc2CN[C@@H](CO)C(=O)O)c1 [Example 3.002] | < 100 |
| COC(=O)[C@H](CO)NC(C)c1cc(Cl)c(O[C@H]2CCc3c(-c4ccccc4F)cccc32)cc1OCc1cncc(C#N)c1 (some centres unmarked) [Example 3.109] | 500 to 20000 |
| N#Cc1cncc(COc2cc(O[C@H]3CCc4c(-c5ccc(CO)cc5)cccc43)c(Cl)cc2CN[C@@H](CO)C(=O)O)c1 [Example 3.123] | 500 to 20000 |
| COC(=O)Cc1ccccc1-c1cccc2c1CC[C@@H]2Oc1cc(OCc2cncc(C#N)c2)c(CN[C@@H](CO)C(=O)O)cc1Cl [Example 3.078] | 500 to 20000 |
| N#Cc1cncc(COc2cc(O[C@H]3CCc4c(-c5ccccc5F)cccc43)c(Cl)cc2CN[C@H](Cc2ccc(O)cc2)C(=O)O)c1 [Example 3.102] | 500 to 20000 |
| N#Cc1cncc(COc2cc(O[C@H]3CCc4c(-c5ccccc5F)cccc43)c(Cl)cc2CN2CC[C@@H](C(=O)O)C2)c1 [Example 3.132] | < 100 |
| COCc1ccccc1-c1cccc2c1CC[C@@H]2Oc1cc(OCc2cncc(C#N)c2)c(CN[C@@H](CO)C(=O)O)cc1Cl [Example 3.115] | 500 to 20000 |
| N#Cc1cncc(COc2cc(O[C@H]3CCc4c(-c5ccccc5F)cccc43)c(Cl)cc2CNC2CC(=O)NC(=O)C2)c1 [Example 3.065] | 500 to 20000 |
| N#Cc1cncc(COc2cc(O[C@H]3CCc4c(-c5ccccc5F)cccc43)c(Cl)cc2CNCc2c[nH]cn2)c1 [Example 3.059] | < 100 |
| Cc1n[nH]c(C)c1CNCc1cc(Cl)c(O[C@H]2CCc3c(-c4ccccc4F)cccc32)cc1OCc1cncc(C#N)c1 [Example 3.082] | 100 to 500 |
| N#Cc1cncc(COc2cc(OC3CCc4c(-c5ccccc5F)cccc43)c(F)cc2CN[C@@H](CO)C(=O)O)c1 (some centres unmarked) [Example 3.070] | < 100 |
| N#Cc1cncc(COc2cc(O[C@H]3CCc4c(-c5cccc(CO)c5)cccc43)c(Cl)cc2CN[C@@H](CO)C(=O)O)c1 [Example 3.121] | 500 to 20000 |

From patent US10639284B2, “Immunomodulator compounds” (CHEMOCENTRYX, INC., priority 2016, dated 2020)
